Source: paper PMC12603070, “A high-throughput screening approach to discover potential colorectal cancer chemotherapeutics: repurposing drugs to identify novel disruptors of 14-3-3 proteins” (Cell Death & Disease, 2025)
Read-outs that look alike come from different tables or passages of the source. Numbered stars: 1 amine (or outer) side, 2 acyl side, 3 side chain; on linkers, the order of the positions; unused ones are H or OH. Bridge positions count the residues as written; N and C are the ends. Square brackets hold non-standard residues; d marks the D form. Peptide text beside a SMILES is read from it. * marks the point of attachment. pTerphenylCO(4''-OnC5H11) = CCCCCOc1ccc(-c2ccc(-c3ccc(C(=O)*)cc3)cc2)cc1; Orn(4R-OH,5R-OH) = O=C([C@H](C[C@@H](O)[C@@H](O)N[*:3])N[*:1])[*:2]; hTyr(3S-OH,4S-OH) = N[C@H](C(=O)O)[C@H](O)[C@@H](O)c1ccc(O)cc1; Pro(3S-OH,4S-Me) = C[C@H]1CN[C@H](C(=O)O)[C@H]1O; Hyp = O=C(O)[C@@H]1C[C@@H](O)CN1

What was measured:
[1] = test system: HT-29 cells; experiment: Hoechst/propidium iodide cell death assay in HT-29; assay type: cell-based, human; conditions: for %Cell death HT-29: time not given; for cytotoxicity at 20 µM: Homo sapiens
Source text: (§1) A high-content imaging system (PerkinElmer; Operetta CLS), was used to quantify cell death and apoptosis by calculating the number of propidium iodide-positive cells relative to Hoechst-positive cells, and the number of Annexin V-positive cells relative to Hoechst-positive cells, respectively.

[2] = test system: NIH-3T3 cells; experiment: Hoechst/propidium iodide cell death assay in NIH-3T3; assay type: cell-based; conditions: for cytotoxicity at 20 µM: Mus musculus, NIH3T3, 24 h, read-out: Percentage of cell death % 24h NIH3t3
Source text: as §1

[3] = target: T1, 14-3-3ζ:BAD-112-136F interactions (Homo sapiens, UniProt P63104); experiment: BRET sensor screen for disruption of 14-3-3ζ-Rluc8:BAD-112-136F-mCitrine in living NIH-3T3 cells; assay type: cell-based, murine; design: inhibition: dose or concentration left out as unconfirmed; BRET reduction on NIH-3T3: unit not given here; conditions: for inhibition / inhibition at 20 µM: NIH3T3, 3 h, read-out: BRET reduction on NIH-3T3
T1 construct: expressed in transfected cells; host or cells: NIH-3T3 fibroblasts, bi-directional pBI-CMV1 plasmid
T1 sequence (P63104 1-245): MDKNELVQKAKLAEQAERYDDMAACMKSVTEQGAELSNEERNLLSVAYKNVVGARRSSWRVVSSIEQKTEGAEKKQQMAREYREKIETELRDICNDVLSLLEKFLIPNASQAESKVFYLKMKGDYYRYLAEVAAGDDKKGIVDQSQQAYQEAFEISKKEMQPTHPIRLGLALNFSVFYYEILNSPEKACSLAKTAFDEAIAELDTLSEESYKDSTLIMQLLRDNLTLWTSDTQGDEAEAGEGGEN
Summary of the method: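 NIH-3T3 cells were transfected with the BRET sensor two days beforehand, then replated on poly-L-ornithine-coated plates and grown 24 h at 37 °C. Medium was then replaced with Krebs buffer (pH 7.4). Z′-score was calculated to judge HTS robustness.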

[4] = test system: Caco-2 cells; assay type: cell-based; conditions: for Percentage of cell death % 24h CACO-2: 20 µM; for Percentage of cell death % 48h, Caco-2: 20 μM
Source text: as §1

[5] = test system: HT-29 and Caco-2 CRC cells; experiment: Cell death in CRC cells, statements covering both HT-29 and Caco-2 (screen at 20 µM, dose-response); assay type: cell-based, human
Procedure: Cells were plated at a density of 20,000 cells/well into 96-well plates (PerkinElmer; #6055302) and incubated overnight at 37 °C before the addition of the drugs. One hour prior to imaging, Hoechst 33342 (Invitrogen, #H3570) and propidium iodide (Invitrogen; #P3566) were added to the wells to achieve final concentrations of 50 ng/ml and 0.5 μg/ml, respectively. To measure apoptosis, AlexaFluor 488-conjugated Annexin V (ThermoFisher, Massachusetts, USA; #A13201) was also added at a dilution of 1:400 from the commercial stock. A high-content imaging system (PerkinElmer; Operetta CLS), was used to quantify cell death and apoptosis by calculating the number of propidium iodide-positive cells relative to Hoechst-positive cells, and the number of Annexin V-positive cells relative to Hoechst-positive cells, respectively. To assess caspase-dependent apoptosis, cells were pre-treated for 30 min with the caspase inhibitor Z-VAD-FMK (BD Biosciences, New Jersey, USA; #550377; 20 μM) or the negative control Z-FA-FMK (BD Biosciences; #550411; 20 μM) prior to the incubation of drugs.

[6] = HT-29, 24 h, 20 µM, 24 h, read-out: Percentage of cell death % 24h HT-29
[7] = HT-29, 48 h, HT-29, 48h, 20 μM, read-out: Percentage of cell death % 48h, HT-29
[8] = NIH-3T3 cells, hits from the primary screen
[9] = NIH-3T3 expressing BRET sensor, 20 µM, 3 h

Row | Structure (SMILES) | inhibition [3, 8] [%] | inhibition at 20 µM [3, 9] [%] | %Cell death HT-29 ([1]; HT-29) [%] | cytotoxicity at 20 µM [1, 6] [%] | cytotoxicity at 20 µM [1, 7] [%] | cytotoxicity at 20 µM ([2]; 20 µM, 24 h) [%] | Percentage of cell death % 48h, NIH3T3 [2] [%] | Percentage of cell death % 24h CACO-2 [4] [%] | Percentage of cell death % 48h, Caco-2 [4] [%] | %Cell death Caco-2 ([4]; time not given, text says 48 h) [%] | also measured
1 | CCCCCOc1ccc(-c2ccc(-c3ccc(C(=O)N[C@H]4C[C@@H](O)[C@@H](O)NC(=O)[C@@H]5[C@@H](O)[C@@H](C)CN5C(=O)[C@H]([C@@H](C)O)NC(=O)[C@H]([C@H](O)[C@@H](O)c5ccc(O)cc5)NC(=O)[C@@H]5C[C@@H](O)CN5C(=O)[C@H]([C@@H](C)O)NC4=O)cc3)cc2)cc1 [Anidulafungin] ({pTerphenylCO(4''-OnC5H11)}-[Orn(4R-OH,5R-OH)]T[Hyp][hTyr(3S-OH,4S-OH)]T[Pro(3S-OH,4S-Me)]; lactam 1-C) | – | – | – | – | – | – | 12.0742 | 1.705 | 1.424 | – | cytotoxicity at 20 µM ([1]; HT-29, 24 h, read-out: Percentage of cell death % 24h HT-29): 4.73%; cytotoxicity at 20 µM ([1]; HT-29, 48 h, read-out: Percentage of cell death % 48h, HT-29): 7.05%; cytotoxicity at 20 µM [2]: 33.6%; inhibition at 20 µM [3]: 27%; BRET reduction on NIH-3T3 [3, 8]: 27.0241
2 | CC(C)Oc1ccc(-c2nc(-c3cccc4c3CC[C@@H]4NCCO)no2)cc1C#N [Ozanimod (RPC1063), Ozanimod] | 29.4 | 29.4 | – | 1.29 | 3.92 | 89.9 | 87.9452 | 10.8525 | 17.0415 | – | –
3 | CO[C@H]1C[C@H](O[C@H]2[C@H](C)O[C@@H](O[C@@H]3/C(C)=C/C[C@@H]4C[C@@H](C[C@]5(C=C[C@H](C)[C@@H](C6CCCCC6)O5)O4)OC(=O)[C@@H]4C=C(C)[C@@H](O)[C@H]5OC/C(=C\C=C\[C@@H]3C)[C@]54O)C[C@@H]2OC)O[C@@H](C)[C@@H]1O [Doramectin] | – | – | 51.6 | – | – | – | 58.749 | – | – | – | Percentage of cell death % 24h HT-29 ([1]; 20 µM, 24 h): 11.0069%; Percentage of cell death % 48h, HT-29 ([1]; HT-29, 48h, 20 μM): 51.5756%; Percentage of cell death % 24h NIH3t3 ([2]; 20 µM, 24 h): 51.7189%; BRET reduction on NIH-3T3 [3, 8]: 36.2699; BRET reduction on NIH-3T3 [3, 9]: 36.2699; %Cell death Caco-2 [4]: 32.3%
4 | CCCCc1oc2ccc(NS(C)(=O)=O)cc2c1C(=O)c1ccc(OCCCN(CCCC)CCCC)cc1 [Dronedarone] | 50.4 | 50.4 | 79.0 | – | 79 | 88.3 | 83.8385 | 69.9639 | 86.906 | 86.9 | Percentage of cell death % 24h HT-29 ([1]; 20 µM, 24 h): 52.4326%
5 | OC(CNCC(O)C1CCc2cc(F)ccc2O1)C1CCc2cc(F)ccc2O1 (centres unmarked) [Nebivolol] | 34.7 | 34.7 | 67.3 | 9.8 | 67.3 | 64.6 | 64.5697 | – | – | – | %Cell death Caco-2 [4]: 45.0%
6 | CCCSc1nc(N[C@@H]2C[C@H]2c2ccc(F)c(F)c2)c2nnn([C@@H]3C[C@H](OCCO)[C@@H](O)[C@H]3O)c2n1 [Ticagrelor] | 25.6 | 25.6 | – | 1.2 | 3.67 | 13.7 | 5.069 | 3.005 | 3.049 | – | –

Continued, in another order:

Row | inhibition [3, 8] [%] | inhibition at 20 µM [3, 9] [%] | Structure (SMILES) | %Cell death HT-29 ([1]; HT-29) [%] | cytotoxicity at 20 µM [1, 6] [%] | cytotoxicity at 20 µM [1, 7] [%] | cytotoxicity at 20 µM ([2]; 20 µM, 24 h) [%] | Percentage of cell death % 48h, NIH3T3 [2] [%] | Percentage of cell death % 24h CACO-2 [4] [%] | Percentage of cell death % 48h, Caco-2 [4] [%] | %Cell death Caco-2 ([4]; time not given, text says 48 h) [%] | also measured
7 | 41.6 | 41.6 | CC(C)(C)C#Cc1cc(N(C(=O)[C@H]2CC[C@H](C)CC2)[C@H]2CC[C@H](O)CC2)c(C(=O)O)s1 [VX-222 (VCH-222, Lomibuvir), Lomibuvir] | 78.5 | 3.68 | 78.5 | 5.5 | 38.6762 | 4.951 | 36.3165 | 36.3 | Lowest concentration that significantly induced cell death ([5]; dose-response 2.5-20 µM in HT-29 and Caco-2): 5 µM; Efficacy in the magnitude of cell death attained ([5]; dose-response in CRC cells): inferior to other candidates
8 | 40.2 | 40.2 | CC1=C(C(=O)OC(C)C)C(c2cccc([N+](=O)[O-])c2)C(C(=O)OC2CN(C(c3ccccc3)c3ccccc3)C2)=C(N)N1 (centres unmarked) [Azelnidipine] | 91.6 | 66.4 | 91.6 | 75.6 | 71.6636 | 9.563 | 13.6799 | 13.7 | –
9 | 25.5 | 25.5 | CCOC(=O)N1CCC(=C2c3ccc(Cl)cc3CCc3cccnc32)CC1 [Loratadine] | – | 0.925 | 3.3 | 9.83 | 16.5359 | 3.76 | 3.356 | – | –
